Results published in US11976054B2, “Amide derivative and preparation method therefore and use thereof in medicine” (Chengdu Baiyu Pharmaceutical Co., Ltd., priority 2019, dated 2024).

The molecules below were run on Human monocyte cell line THP-1 (assay: Detection of THP-1 cell pyroptosis (Caspase-Glo 1 Inflammasome Assay)). Details: Homo sapiens, THP-1, THP-1 pyroptosis, 20 nM PMA 48 h, 1 μg/mL LPS, compound 3 h.
Type: cell-based
Procedure: Human monocyte cell line THP-1 (ATCC® TB-202TM) was cultured in RPMI-1640 culture medium containing […], 1 mM pyruvic acid, 0.05 mM β-mercaptoethanol and 10% double antibody under the culture conditions of 37° C. and […].
Cell counting was performed, THP-1 cells were seeded into a 96-well plate at 50000 per well, and 20 nM PMA was added for inducing at 37° C./5% CO2 for 48 h. The culture medium was then discarded, and 100 μL of serum-free RPMI-1640 medium containing 1 μg/mL LPS was added. 5 μL of compound or solvent control was added and 3-fold diluted in gradient from a maximum concentration of 10 μM, and 10 gradient concentrations were set. The mixtures were incubated at 37° C./5% CO2 for 3 h. After the incubation, the mixtures were centrifuged at 300 g for 5 min, and the culture medium was discarded. Pyroptosis assay was performed according to specific steps described in instructions of Caspase-Glo® 1 Inflammasome Assay kit. IC50 was calculated using GraphPad Prism7.0 software.

Molecule	IC50 [nM]
CC(C)(O)c1coc(S(=O)(=O)NC(=O)Nc2c(CC3CCC3)ccc3c2CC3)c1 [Compound 33, N-((3-(cyclobutylmethyl)bicyclo[4.2.0]octa-1(6),2,4-trien-2-yl)carbamoyl)-4-(2-hydroxypropan-2-yl)furan-2-sulfonamide]	100 to 500
C[C@@H](c1ccc2c(c1NC(=O)NS(=O)(=O)c1ccc(C3(O)CCOCC3)s1)CCC2)C1CC1 [Compound 68]	100 to 500
CC(c1ccc2c(c1NC(=O)NS(=O)(=O)c1cc(C(C)(C)O)co1)CCC2)C1CC1 (stereo not drawn) [Compound 1, N-((5-(1-cyclopropylethyl)-2,3-dihydro-1H-inden-4-yl)carbamoyl)-4-(2-hydroxypropan-2-yl)furan-2-sulfonamide]	100 to 500
C[C@@H](c1ccc2c(c1NC(=O)NS(=O)(=O)c1cc(C(C)(C)O)co1)CCC2)C1CCC1 [Compound 79, (R)-N-((5-(1-cyclobutylethyl)-2,3-dihydro-1H-inden-4-yl)carbamoyl)-4-(2-hydroxypropan-2-yl)furan-2-sulfonamide]	100 to 500
C[C@@H](c1ccc2c(c1NC(=O)N[S@@](=N)(=O)c1cc(C(C)(C)O)cs1)CCC2)C1CC1 [Compound 55-1]	100 to 500
CC(c1ccc2c(c1NC(=O)NS(=O)(=O)c1cc(C(C)(C)O)co1)CCC2)C1CCC1 (stereo not drawn) [Compound 15, N-((5-(1-cyclobutylethyl)-2,3-dihydro-1H-inden-4-yl)carbamoyl)-4-(2-hydroxypropan-2-yl)furan-2-sulfonamide]	100 to 500
CC(c1ccc2c(c1NC(=O)NS(=N)(=O)c1cc(C(C)(C)O)co1)CCC2)C1CCC1 (stereo not drawn) [Compound 16, N-((5-(1-cyclobutylethyl)-2,3-dihydro-1H-inden-4-yl)carbamoyl)-4-(2-hydroxypropan-2-yl)furan-2-sulfonimidamide]	≤ 100
C[C@H](c1cc(C#N)c2c(c1NC(=O)NS(=O)(=O)c1cc(C(C)(C)O)co1)CCC2)C1CC1 [Compound 47, (S)-N-((7-cyano-5-(1-cyclopropylethyl)-2,3-dihydro-1H-inden-4-yl)carbamoyl)-4-(2-hydroxypropan-2-yl)furan-2-sulfonamide]	500 to 1000
[2H]c1cc([C@@H](C)C2CC2)c(NC(=O)NS(=O)(=O)c2cc(C(C)(C)O)co2)c2c1CCC2 [Compound 30, (S)-N-((5-(1-cyclopropylethyl)-2,3-dihydro-1H-inden-4-yl-7-d)carbamoyl)-4-(2-hydroxypropan-2-yl)furan-2-sulfonamide]	1000 to 5000
C[C@@H](c1ccc2c(c1NC(=O)NS(=O)(=O)c1sc(C(C)(C)O)cc1C#N)CCC2)C1CC1 [Compound 62, (R)-3-cyano-N-((5-(1-cyclopropylethyl)-2,3-dihydro-1H-inden-4-yl)carbamoyl)-5-(2-hydroxypropan-2-yl)thiophene-2-sulfonamide]	≤ 100
CC(C)(O)c1coc(S(=O)(=O)NC(=O)Nc2c(CC3CCC3)ccc3c2CCC3)c1 [Compound 17, N-((5-(cyclobutylmethyl)-2,3-dihydro-1H-inden-4-yl)carbamoyl)-4-(2-hydroxypropan-2-yl)furan-2-sulfonamide]	100 to 500
C[C@@H](c1ccc2c(c1NC(=O)NS(=O)(=O)c1ccc(C(C)(C)O)s1)CCC2)C1CC1 [Compound 58, (R)-N-((5-(1-cyclopropylethyl)-2,3-dihydro-1H-inden-4-yl)carbamoyl)-5-(2-hydroxypropan-2-yl)thiophene-2-sulfonamide]	1000 to 5000
Cc1oc(S(=O)(=O)NC(=O)Nc2c([C@H](C)C3CC3)ccc3c2CCC3)cc1C(C)(C)O [Compound 22, (R)-N-((5-(1-cyclopropylethyl)-2,3-dihydro-1H-inden-4-yl)carbamoyl)-4-(2-hydroxypropan-2-yl)-5-methylfuran-2-sulfonamide]	≤ 100
C[C@@H](c1ccc2c(c1NC(=O)NS(=O)(=O)c1cc(C(C)(C)O)co1)CCC2)C1CCCC1 [Compound 26, (R)-N-((5-(1-cyclopentylethyl)-2,3-dihydro-1H-inden-4-yl)carbamoyl)-4-(2-hydroxypropan-2-yl)furan-2-sulfonamide]	1000 to 5000
C=C(c1c(C)cc2c(c1NC(=O)NS(=O)(=O)c1cc(C(C)(C)O)co1)CCC2)C1CC1 [Compound 40, N-((5-(1-cyclopropylvinyl)-6-methyl-2,3-dihydro-1H-inden-4-yl)carbamoyl)-4-(2-hydroxypropan-2-yl)furan-2-sulfonamide]	1000 to 5000

Same assay, conditions: THP-1 pyroptosis, 20 nM PMA 48 h, 1 μg/mL LPS, compound 3 h

Molecule	IC50 [nM]
Cc1ccc(S(=N)(=O)NC(=O)Nc2c(C(C)C)cccc2C(C)C)cc1 (stereo not drawn) [Compound 92-2, RS- and SS-N-((2,6-diisopropylphenyl)carbamoyl)-4-methylbenzenesulfonimidamide, reference compound]	> 10000
CC(C)(O)c1ccc(S(=N)(=O)NC(=O)Nc2c(CC3CCC3)ccc3c2CCC3)s1 (racemic) [Compound 53-2, (RS)- and (SS)-N-((5-(cyclobutylmethyl)-2,3-dihydro-1H-inden-4-yl)carbamoyl)-5-(2-hydroxypropan-2-yl)thiophene-2-sulfonimidamide]	100 to 500
CC(C)c1cccc(CC2CCC2)c1NC(=O)NS(=N)(=O)c1cc(C(C)(C)O)co1 (single isomer, unassigned) [Compound 70-1, RS- and SS-N-((2-(cyclobutylmethyl)-6-isopropylphenyl)carbamoyl)-4-(2-hydroxypropan-2-yl)furan-2-sulfonimidamide]	≤ 100
CC(c1cc(C#N)c2c(c1NC(=O)NS(=N)(=O)c1cc(C(C)(C)O)co1)CCC2)C1CC1 (racemic) [Compound 48-2, (RS, SC)- and (SS, SC)-N-((7-cyano-5-(1-cyclopropylethyl)-2,3-dihydro-1H-inden-4-yl)carbamoyl)-4-(2-hydroxypropan-2-yl)furan-2-sulfonimidamide]	1000 to 5000
[2H]c1cc([C@@H](C)C2CC2)c(NC(=O)NS(=N)(=O)c2cc(C(C)(C)O)co2)c2c1CCC2 (single isomer, unassigned) [Compound 32-1, (RS, SC)- and (SS, SC)-N-((5-(1-cyclopropylethyl)-2,3-dihydro-1H-inden-4-yl-7-d)carbamoyl)-4-(2-hydroxypropan-2-yl)furan-2-sulfonimidamide]	1000 to 5000
CC(C)(O)c1ncc(S(=N)(=O)NC(=O)Nc2c(CC3CCC3)ccc3c2CCC3)s1 (single isomer, unassigned) [Compound 19-2, RS- and SS-N-((5-(cyclobutylmethyl)-2,3-dihydro-1H-inden-4-yl)carbamoyl)-2-(2-hydroxypropan-2-yl)thiazole-5-sulfonimidamide]	100 to 500
RS- and SS-N-((5-(cyclobutylmethyl)-2,3-dihydro-1H-inden-4-yl)carbamoyl)-4-(2-hydroxypropan-2-yl-1,1,1,3,3,3-d6)furan-2-sulfonimidamide [Compound 50-1]	500 to 1000
CC(C)c1cccc(CC2CCC2)c1NC(=O)NS(=N)(=O)c1cc(C(C)(C)O)co1 (single isomer, unassigned) [Compound 70-2, RS- and SS-N-((2-(cyclobutylmethyl)-6-isopropylphenyl)carbamoyl)-4-(2-hydroxypropan-2-yl)furan-2-sulfonimidamide]	1000 to 5000
(RS, SC)- and (SS, SC)-N-((5-(1-cyclobutylethyl)-2,3-dihydro-1H-inden-4-yl)carbamoyl)-4-(2-hydroxypropan-2-yl)furan-2-sulfonimidamide [Compound 82-2]	1000 to 5000
